Laboratory results: publication PMC10285648, “iTAG an optimized IMiD-induced degron for targeted protein degradation in human and murine cells” (iScience, 2023)

Tested on: N-terminally tagged cMYC, RBM39, BRD4 (Flag-HA-DCD23 or Flag-HA-FKBP12^[F36V])
Test: Western blotting, iTAG versus dTAG fused proteins in SUM159
Assay type: cell-based, human
Details: SUM159, dTAG-13 on dTAG, CC220 on iTAG
Method: The fusion constructs were stably expressed in SUM159 cells and loss of protein was determined by western blotting.
The protein lysates were probed for HA using western blotting. […] The protein lysates were probed for HA using western blotting. […] Median EGFP intensity was measured in each condition using flow cytometry. (3 independent experiments, represented as mean ± SD).
The dTAG system has also been adapted to direct targets to the E3 CRL2^VHL using the PROTAC dTAG^V-1^16. […] We evaluated the degradation N-terminally tagged cMYC and RBM39 dTAG^V-1, we included BRD4 as a control as it was reported to be a well degraded target in the initial dTAG optimization (Figure 3C).[15]
For the pHAGE-PGK constructs: DCD23, SuperDegron and FKBP12^F36V were separately cloned into a pHAGE-PGK DEST backbone. cDNA encoding the indicated protein was then cloned from pENTR221 into the pHAGE-PGK-DCD23, pHAGE-PGK-SuperDegron or pHAGE-PGK-FKBPF36V DEST vector using Gateway cloning. SUM159 cells were transduced with the indicated lentivirus and selected with puromycin.
Cells were lysed with SDS lysis buffer (2% SDS, 10% Glycerol, 50mM Tris pH 6.8) and boiled at 95°C for 30min. Protein concentration was measured using Pierce BCA Protein Assay Kit (ThermoFischer) following manufacturer’s recommendations. Samples were ran in NuPAGETM 10% Bis-Tris Midi electrophoresis gels (Invitrogen) using NuPAGETM MES SDS running buffer (ThermoFischer Scientific). Proteins were subsequently transferred to an Immobilon-P polyvinylidene Difluoride (PVDF) membrane (Merck Millipore) using the wet-transfer method (Bio-Rad) in a transfer buffer consisting of 20% (v/v) methanol and 10% protein electrophoresis buffer (24.77 mM Tris and 0.192 M glycine).
For western blotting membranes were blocked in a solution of 5% (w/v) bovine serum albumin (BSA; Sigma-Aldrich) dissolved in TBS-0.1% Tween 20 (Sigma-Aldrich) then incubated at 4°C overnight with the primary antibodies diluted in 5% (w/v) BSA/TBS-T. The membranes where then washed and incubated with anti-mouse and/or anti-rabbit secondary antibodies (LI-COR Biosciences) for 2h at RT diluted in 5% (w/v) BSA/TBS-T then washed and imaged using the LI-COR Odyssey (LI-COR Biosciences). Images were analyzed using Image Studio Lite software (LI-COR Biosciences).

`O=C1CC[C@H](N2Cc3c(OCc4ccc(CN5CCOCC5)cc4)cccc3C2=O)C(=O)N1` [CC220, Iberdomide] was tested, and the “concentrations at which targets are degraded” value was 0.01 to 10 µM and the “time of onset of degradation of cMYC and RBM39” value (1, 2 or 4h) was no more than 1 h.
